Like-named read-outs stand apart in the source and are kept apart here.

The test system of assay [1] is Cabbage Looper (Trichoplusia ni, TRIPNI). Kind of assay: Bioassays on Cabbage Looper (CL), 128-well diet tray assay. Format: in vivo. Particulars: Trichoplusia ni. In outline:
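Percent mortality, averaged across eight replicate wells, after second-instar larvae (1–5 per well) fed for five to seven days on diet dosed at 50 μg/cm^2. Compound was applied in acetone-water 90:10 and dried; trays kept vented at 25° C under 14:10 photoperiod.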

The subject of assay [2] is Beet Armyworm (Spodoptera exigua, LAPHEG). Kind of assay: Bioassays on Beet Armyworm (BAW), 128-well diet tray assay. Format: in vivo. Particulars: Spodoptera exigua. In outline:
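Test molecule was dissolved in 90:10 acetone-water and applied at 50 μg/cm^2 onto artificial diet in eight wells, then dried. Second instar larvae, one to five per well, were added, and trays were kept vented at 25° C. with a 14:10 photoperiod for five to seven days before mortality was recorded.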

Setting [3] is: Cabbage Looper, rating class, read-out: CL.
The mark [4] stands for this setting: Beet Armyworm, rating class, read-out: BAW.
[5] abbreviates: Cabbage Looper, Table ABC / ABC-DP rating, read-out: CL rating.
The mark [6] stands for this setting: Beet Armyworm, Table ABC / ABC-DP rating, read-out: BAW rating.
[7] abbreviates: Table ABC: Biological Results, species CL, read-out: CL.
Setting [8] is: Table ABC: Biological Results, species BAW, read-out: BAW.

Regarding `Cc1cc(NC(=O)[C@H]2[C@H](c3cc(Cl)c(Cl)c(Cl)c3)C2(Cl)Cl)cc(C(=O)Nc2c(F)ccc(N)c2F)c1Cl` [F1427, N-(3-Amino-2,6-difluorophenyl)-2-chloro-5-((1R,3R)-2,2-dichloro-3-(3,4,5-trichlorophenyl)cyclopropane-1-carboxamido)-3-methylbenzamide], the pest or weed control at 50 µg/cm2 in assay [1] (setting [3]) and in assay [2] (setting [4]) was 50 to 100% each time.

Take `O=C(Nc1cc(NC(=O)C(F)(F)F)c(F)cc1F)c1cc(NC(=O)[C@H]2[C@H](c3cc(Cl)c(Cl)c(Cl)c3)C2(Cl)Cl)cc(F)c1F` [F1579, 5-((1R,3R)-2,2-Dichloro-3-(3,4,5-trichlorophenyl)cyclopropane-1-carboxamido)-N-(2,4-difluoro-5-(2,2,2-trifluoroacetamido)phenyl)-2,3-difluorobenzamide]: the pest or weed control at 50 µg/cm2 in assay [1] (setting [3]) and in assay [2] (setting [4]) was 50 to 100% throughout.

For the compound `COc1c(Cl)cc(NC(=O)[C@H]2[C@H](c3ccc(F)c(Cl)c3)C2(Cl)Cl)cc1C(=O)NCC(F)(F)F` (relative stereo) [F2061, trans-3-Chloro-5-(2,2-dichloro-3-(3-chloro-4-fluorophenyl)cyclopropane-1-carboxamido)-2-methoxy-N-(2,2,2-trifluoroethyl)benzamide], the pest or weed control at 50 µg/cm2 in assay [1] (setting [5]) and in assay [2] (setting [6]) was 50 to 100% in each case.

Turning to `C#CCNc1c(F)ccc(NC(=O)c2cc(NC(=O)[C@H]3[C@H](c4ccc(F)c(C(F)(F)F)c4)C3(Cl)Cl)ccc2Cl)c1F` [F1807, 2-Chloro-5-((1R,3R)-2,2-dichloro-3-(4-fluoro-3-(trifluoromethyl)phenyl)cyclopropane-1-carboxamido)-N-(2,4-difluoro-3-(prop-2-yn-1-ylamino)phenyl)benzamide], the pest or weed control at 50 µg/cm2 in assay [1] (setting [5]) and in assay [2] (setting [6]) was 50 to 100% each time.

As to `Nc1c(F)ccc(NC(=O)c2c(F)ccc(NC(=O)[C@H]3[C@H](c4ccc(F)c(Cl)c4)C3(Cl)Cl)c2F)c1F` (relative stereo) [F1111, trans-N-(3-Amino-2,4-difluorophenyl)-3-(2,2-dichloro-3-(3-chloro-4-fluorophenyl)cyclopropane-1-carboxamido)-2,6-difluorobenzamide], the pest or weed control at 50 µg/cm2 in assay [1] (setting [7]) and in assay [2] (setting [8]) was 50 to 100% in each case.

Turning to `O=C(Nc1ccc(F)c(NC(=O)C2(C(F)(F)F)CCC2)c1F)c1cc(NC(=O)[C@H]2[C@H](c3ccc(F)c(C(F)(F)F)c3)C2(Cl)Cl)ccc1Cl` [F1849, 2-Chloro-5-((1R,3R)-2,2-dichloro-3-(4-fluoro-3-(trifluoromethyl)phenyl)cyclopropane-1-carboxamido)-N-(2,4-difluoro-3-(1-(trifluoromethyl)cyclobutane-1-carboxamido)phenyl)benzamide], the pest or weed control at 50 µg/cm2 in assay [1] (setting [5]) and in assay [2] (setting [6]) was 50 to 100% each time.

For `CC1OC1C(=O)Nc1c(F)ccc(NC(=O)c2cc(NC(=O)[C@H]3[C@H](c4ccc(F)c(C(F)(F)F)c4)C3(Cl)Cl)ccc2Cl)c1F` (stereo partly drawn) [F1748, N-(3-(2-Chloro-5-((1R,3R)-2,2-dichloro-3-(4-fluoro-3-(trifluoromethyl)phenyl)cyclopropane-1-carboxamido)benzamido)-2,6-difluorophenyl)-3-methyloxirane-2-carboxamide], the pest or weed control at 50 µg/cm2 in assay [1] (setting [3]) and in assay [2] (setting [4]) was 50 to 100% each time.

Regarding `CCOC(CC)C(=O)Nc1c(F)ccc(NC(=O)c2cc(NC(=O)[C@H]3[C@H](c4ccc(F)c(C(F)(F)F)c4)C3(Cl)Cl)ccc2Cl)c1F` (stereo partly drawn) [F1757, 2-Chloro-5-((1R,3R)-2,2-dichloro-3-(4-fluoro-3-(trifluoromethyl)phenyl)cyclopropane-1-carboxamido)-N-(3-(2-ethoxybutanamido)-2,4-difluorophenyl)benzamide], the pest or weed control at 50 µg/cm2 in assay [1] (setting [3]) and in assay [2] (setting [4]) was 50 to 100% throughout.

As for `Cc1cc(NC(=O)[C@H]2[C@H](c3cc(Cl)c(Cl)c(Cl)c3)C2(Cl)Cl)cc(C(=O)Nc2ccc(F)c(NC(=O)C(F)(F)F)c2F)c1Cl` [F1487, 2-Chloro-5-((1R,3R)-2,2-dichloro-3-(3,4,5-trichlorophenyl)cyclopropane-1-carboxamido)-N-(2,4-difluoro-3-(2,2,2-trifluoroacetamido)phenyl)-3-methylbenzamide], the pest or weed control at 50 µg/cm2 in assay [1] (setting [3]) and in assay [2] (setting [4]) was 50 to 100% in each case.

Consider `O=C(Nc1ccc(F)c(NC(=O)C2CCCS2)c1F)c1cc(NC(=O)[C@H]2[C@H](c3ccc(F)c(C(F)(F)F)c3)C2(Cl)Cl)ccc1Cl` (stereo partly drawn) [F1721, N-(3-(2-Chloro-5-((1R,3R)-2,2-dichloro-3-(4-fluoro-3-(trifluoromethyl)phenyl)cyclopropane-1-carboxamido)benzamido)-2,6-difluorophenyl)tetrahydrothiophene-2-carboxamide], for which the pest or weed control at 50 µg/cm2 in assay [1] (setting [3]) and in assay [2] (setting [4]) was 50 to 100% in each case.

For `O=C(NNCc1cc(F)ccc1F)c1cc(NC(=O)[C@H]2[C@H](c3cc(Cl)cc(Cl)c3)C2(Cl)Cl)ccc1Cl` (relative stereo) [F2546, trans-2,2-Dichloro-N-(4-chloro-3-(2-(2,5-difluorobenzyl)hydrazine-1-carbonyl)phenyl)-3-(3,5-dichlorophenyl)cyclopropane-1-carboxamide], the pest or weed control at 50 µg/cm2 in assay [1] (setting [5]) and in assay [2] (setting [6]) was 50 to 100% throughout.

As to `CC(C)NC(=O)NNC(=O)c1cc(NC(=O)[C@H]2[C@H](c3cc(Cl)cc(Cl)c3)C2(Cl)Cl)ccc1Cl` (relative stereo) [F2536, trans-2-(2-Chloro-5-(2,2-dichloro-3-(3,5-dichlorophenyl)cyclopropane-1-carboxamido)benzoyl)-N-isopropylhydrazine-1-carboxamide], the pest or weed control at 50 µg/cm2 in assay [1] (setting [5]) and in assay [2] (setting [6]) was 50 to 100% in each case.

Turning to `O=C(Nc1ccc(F)c(Br)c1F)c1cc(NC(=O)[C@H]2[C@H](c3cc(Cl)cc(Cl)c3)C2(Cl)Cl)ccc1Cl` (relative stereo) [F1307, trans-N-(3-Bromo-2,4-difluorophenyl)-2-chloro-5-(2,2-dichloro-3-(3,5-dichlorophenyl)cyclopropane-1-carboxamido)benzamide], the pest or weed control at 50 µg/cm2 in assay [1] (setting [7]) and in assay [2] (setting [8]) was 50 to 100% throughout.

Turning to `O=C(NCCCCl)c1cc(NC(=O)[C@H]2[C@H](c3ccc(F)c(Cl)c3)C2(Cl)Cl)cc(Cl)c1F` (relative stereo) [F2048, trans-3-Chloro-N-(3-chloropropyl)-5-(2,2-dichloro-3-(3-chloro-4-fluorophenyl)cyclopropane-1-carboxamido)-2-fluorobenzamide], the pest or weed control at 50 µg/cm2 in assay [1] (setting [5]) and in assay [2] (setting [6]) was 50 to 100% in each case.

In the case of `O=C(Nc1ccc(F)c(NC(=O)C(F)F)c1F)c1cc(NC(=O)[C@H]2[C@H](c3cc(Cl)c(Cl)c(Cl)c3)C2(Cl)Cl)ccc1F` [F1527, 5-((1R,3R)-2,2-Dichloro-3-(3,4,5-trichlorophenyl)cyclopropane-1-carboxamido)-N-(3-(2,2-difluoroacetamido)-2,4-difluorophenyl)-2-fluorobenzamide], the pest or weed control at 50 µg/cm2 in assay [1] (setting [3]) and in assay [2] (setting [4]) was 50 to 100% each time.

For `CC(C)(C)OC(=O)Nc1c(F)ccc(NC(=O)c2cc(NC(=O)[C@H]3[C@H](c4ccc(Br)c(C(F)(F)F)c4)C3(Cl)Cl)ccc2Cl)c1F` (relative stereo) [F1115, trans-tert-Butyl-(3-(5-(3-(4-bromo-3-(trifluoromethyl)phenyl)-2,2-dichlorocyclopropane-1-carboxamido)-2-chlorobenzamido)-2,6-difluorophenyl)carbamate], the pest or weed control at 50 µg/cm2 in assay [1] (setting [7]) and in assay [2] (setting [8]) was 50 to 100% each time.

Consider `CCNc1c(F)ccc(NC(=O)c2cc(NC(=O)[C@H]3[C@H](c4ccc(F)c(C(F)(F)F)c4)C3(Cl)Cl)ccc2Cl)c1F` [F1762, 2-Chloro-5-((1R,3R)-2,2-dichloro-3-(4-fluoro-3-(trifluoromethyl)phenyl)cyclopropane-1-carboxamido)-N-(3-(ethylamino)-2,4-difluorophenyl)benzamide], for which the pest or weed control at 50 µg/cm2 in assay [1] (setting [3]) and in assay [2] (setting [4]) was 50 to 100% each time.

As for `CCC(C#N)C(=O)Nc1c(F)ccc(NC(=O)c2cc(NC(=O)[C@H]3[C@H](c4ccc(F)c(C(F)(F)F)c4)C3(Cl)Cl)ccc2Cl)c1F` (stereo partly drawn) [F1756, 2-Chloro-N-(3-(2-cyanobutanamido)-2,4-difluorophenyl)-5-((1R,3R)-2,2-dichloro-3-(4-fluoro-3-(trifluoromethyl)phenyl)cyclopropane-1-carboxamido)benzamide], the pest or weed control at 50 µg/cm2 in assay [1] (setting [3]) and in assay [2] (setting [4]) was 50 to 100% throughout.

On to `Cc1cc(NC(=O)[C@H]2[C@H](c3cc(Cl)c(Cl)c(Cl)c3)C2(Cl)Cl)cc(C(=O)Nc2c(F)ccc(NC(=O)C(F)F)c2F)c1Cl` [F1431, 2-Chloro-5-((1R,3R)-2,2-dichloro-3-(3,4,5-trichlorophenyl)cyclopropane-1-carboxamido)-N-(3-(2,2-difluoroacetamido)-2,6-difluorophenyl)-3-methylbenzamide], for which the pest or weed control at 50 µg/cm2 in assay [1] (setting [3]) and in assay [2] (setting [4]) was 50 to 100% in each case.

Take `O=C(Nc1ccc(F)c(NC(=O)C(F)(F)C(F)(F)C(F)(F)F)c1F)c1cc(NC(=O)[C@H]2[C@H](c3cc(Cl)c(Cl)c(Cl)c3)C2(Cl)Cl)ccc1Cl` [F1652, 2-Chloro-5-((1R,3R)-2,2-dichloro-3-(3,4,5-trichlorophenyl)cyclopropane-1-carboxamido)-N-(2,4-difluoro-3-(2,2,3,3,4,4,4-heptafluorobutanamido)phenyl)benzamide]: the pest or weed control at 50 µg/cm2 in assay [1] (setting [3]) and in assay [2] (setting [4]) was 50 to 100% in each case.

The values above are taken from patent publication US20250228239A1, “MOLECULES HAVING PESTICIDAL UTILITY, AND INTERMEDIATES, COMPOSITIONS, AND PROCESSES, RELATED THERETO” (priority 2024, published 2025).
